Results reported in patent US11993609B2, “Compositions and methods for oral delivery of crystalline PRX-3140 potassium salt” (Nanopharmaceutics, Inc., priority 2022, dated 2024).
Entries after “also recorded” stand apart in the source; their conditions may differ. Read-outs that look alike come from different tables or passages of the source.

Tests used:
[1] = system: all other 5-HT receptors tested; experiment: radioligand binding, other 5-HT receptors (selectivity); conditions: vs 5-HT4R affinity
Excerpt: (§1) The specific ligand binding to the receptors is defined as the difference between the total binding and the nonspecific binding determined in the presence of an excess of unlabelled ligand.

[2] = brain/serum partition after oral administration in preclinical studies; conditions: in vivo
Excerpt: (§2) PRX-3140 is being developed for Alzheimer's disease (AD) and other dementias affecting the cholinergic and/or serotonergic systems including post-traumatic stress disorder (PTSD). Extensive non-clinical studies have been completed including in vitro and in vivo pharmacology, safety pharmacology, genotoxicity as well as single and repeat dose toxicology studies in two species, rat and beagle dog.

[3] = photostability study (ICH Q1B), HPLC; format: physicochemical
Procedure: Two samples of crystalline fine particle Form I of PRX-3140 potassium salt were prepared for photostability testing: (1) 1.5 grams spread evenly across a glass Petri dish and covered with a transparent quartz cover and (2) 1.5 grams spread evenly across a glass Petri dish and covered with aluminum foil. […] Samples were exposed for 2 days and tested using HPLC […] […] Changes were evident for crystalline fine particle Form I of PRX-3140 potassium salt after exposure to UVA and white light. The sample changed color particularly on the upper exposed surface of the material and there were changes apparent in the HPLC data. […] The single impurity profile met the specification (<0.2%) but significant changes were observed. […] Other changes included a change in appearance of the material to a sticky solid and an increase in water content to 4.3% w/w.

[4] = biological target: Sigma-1 receptor (Homo sapiens, UniProt Q99720); experiment: Sigma-1 radioligand binding assays
Excerpt: as §1

[5] = system: distal gastrointestinal motility; experiment: distal gastrointestinal motility; conditions: in vivo
Excerpt: as §2

[6] = system: more than 50 other receptors tested including GPCRs, ion channels and receptor tyrosine kinases; experiment: binding panel of other receptors
Excerpt: as §1

[7] = forced degradation study (acid, base, 3% hydrogen peroxide), LC-UV-MS; format: physicochemical
Procedure: Crystalline fine particle Form I of PRX-3140 potassium salt was subjected to a forced degradation study using acid, base, or hydrogen peroxide exposure for 24 hours. Samples were neutralized and analyzed using LC-UV-MS. [table] Sample Preparation: […] One mL of stock was added to four, 4 mL vials. […] After storage, the samples of acid and base were neutralized by addition of 1 mL their counter solution. […] Samples were analyzed using LC-UV-MS. Table 5 lists a comparison for the control, acid, base, and peroxide samples showing percent peak area versus relative retention time (RRT) at 250 nm. While some minor changes can be noted between the control with the acid and base samples, the overall purity (peak area) of the parent molecule is just slightly higher for the acid and base sample. Some of the minor impurities appear to be reacting with the acid or base, potentially reforming to the parent.

[8] = biological target: Sigma-2 receptor (Homo sapiens, UniProt Q5BJF2); experiment: Sigma-2 radioligand binding assays
Excerpt: as §1

[9] = early-stage clinical studies (safety, tolerability, pharmacokinetics); format: in vivo
Excerpt: as §2

[10] = 30% peroxide degradation study, LC/UV/MS; format: physicochemical; conditions: 18-hour exposure to 30% hydrogen peroxide, HPLC 250 nm
[11] = system: distal gastrointestinal motility; conditions: gastrointestinally active 5-HT4 agonists, comparison; cited from earlier work
[12] = Control (covered with aluminum foil), potassium salt
[13] = Exposed Sample (ICH Q1B light, 2 days), potassium salt
[14] = Acid (1N HCl, 24 hours), 250 nm
[15] = Base (1N NaOH, 24 hours), 250 nm
[16] = Control (DI water, 24 hours), 250 nm

Sigma-1 receptor, sequence (Q99720 whole entry): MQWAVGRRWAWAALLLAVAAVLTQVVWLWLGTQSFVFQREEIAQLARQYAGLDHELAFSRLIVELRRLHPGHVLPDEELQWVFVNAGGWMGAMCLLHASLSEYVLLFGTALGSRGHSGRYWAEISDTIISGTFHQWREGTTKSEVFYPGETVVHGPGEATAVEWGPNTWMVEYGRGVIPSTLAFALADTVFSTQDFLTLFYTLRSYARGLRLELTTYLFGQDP
Sigma-2 receptor, sequence (Q5BJF2 whole entry): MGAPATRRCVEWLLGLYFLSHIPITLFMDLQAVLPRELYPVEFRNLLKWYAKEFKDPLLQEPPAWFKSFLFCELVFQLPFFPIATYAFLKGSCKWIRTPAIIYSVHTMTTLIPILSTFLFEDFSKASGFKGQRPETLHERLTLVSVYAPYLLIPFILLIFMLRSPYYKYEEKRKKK

CC(C)n1c(=O)c(C(=O)NCCCN2CCCCC2)c([O-])c2ccsc21.[K+] [PRX-3140 potassium salt, 6,7-Dihydro-4-hydroxy-7-isopropyl-6-oxo-N-(3-(piperidin-1-yl)propyl)thieno[2,3-b]pyridine-5-carboxamide potassium salt]
difference in affinities compared with all other 5-HT receptors tested [1]: more than 100 fold
CNS penetration [2]: high CNS penetration
Unknown (RRT 0.55) ([3]; Control): 0.01%
Unknown (RRT 0.74) ([3]; Control): 0.01%
Unknown (RRT 0.75) ([3]; Control): 0.01%
Unknown (RRT 0.87) ([3]; Control): 0.09%
Unknown (RRT 0.95) ([3]; Control): 0.04%
Unknown (RRT 0.98) ([3]; Control): 0.01%
Unknown (RRT 1.07) ([3]; Control): 0.01%
Unknown (RRT 1.12) ([3]; Control): 0.01%
Unknown (RRT 1.22) ([3]; Control): 0.01%
Appearance ([3]; Control (covered with aluminum foil)): Pinkish solid
Total impurities [3, 12]: 0.20%
Water Content - KF [3, 12]: 3.1 % w/w
Unknown (RRT 0.55) ([3]; Exposed Sample): 0.01%
Unknown (RRT 0.74) ([3]; Exposed Sample): 0.02%
Unknown (RRT 0.75) ([3]; Exposed Sample): 0.01%
Unknown (RRT 0.86) ([3]; Exposed Sample): 0.01%
Unknown (RRT 0.87) ([3]; Exposed Sample): 0.10%
Unknown (RRT 0.90) ([3]; Exposed Sample): 0.01%
Unknown (RRT 0.91) ([3]; Exposed Sample): 0.01%
Unknown (RRT 0.95) ([3]; Exposed Sample): 0.05%
Unknown (RRT 0.98) ([3]; Exposed Sample): 0.04%
Unknown (RRT 1.07) ([3]; Exposed Sample): 0.06%
Unknown (RRT 1.12) ([3]; Exposed Sample): 0.02%
Unknown (RRT 1.22) ([3]; Exposed Sample): 0.01%
Unknown (RRT 1.50) ([3]; Exposed Sample): 0.02%
Unknown (RRT 1.54) ([3]; Exposed Sample): 0.01%
Unknown (RRT 1.57) ([3]; Exposed Sample): 0.01%
Unknown (RRT 1.63) ([3]; Exposed Sample): 0.05%
Unknown (RRT 1.75) ([3]; Exposed Sample): 0.04%
Unknown (RRT 1.76) ([3]; Exposed Sample): 0.03%
Unknown (RRT 1.79) ([3]; Exposed Sample): 0.01%
Unknown (RRT 2.06) ([3]; Exposed Sample): 0.01%
Unknown (RRT 2.08) ([3]; Exposed Sample): 0.01%
Unknown (RRT 2.16) ([3]; Exposed Sample): 0.01%
Appearance [3, 13]: sticky solid; also recorded: Orange
Total impurities [3, 13]: 0.77%
Water Content - KF [3, 13]: 4.3 % w/w
Unknown (RRT 1.72) ([3]; Exposed Sample, first RRT 1.72 line (r24)): 0.04%
Unknown (RRT 1.83) ([3]; Exposed Sample, potassium salt): 0.16%
Unknown (RRT 1.72) ([3]; Exposed Sample, second RRT 1.72 line (r25)): 0.02%
assay value ([3]; illuminated photostability sample): 94.2 % w/w
Appearance ([3]; t = 0): Light brown solid
Total impurities ([3]; t = 0): 0.22%
Unknown (RRT 0.55) ([3]; t = 0): 0.01%
Unknown (RRT 0.74) ([3]; t = 0): 0.01%
Unknown (RRT 0.75) ([3]; t = 0): 0.01%
Unknown (RRT 0.87) ([3]; t = 0): 0.09%
Unknown (RRT 0.95) ([3]; t = 0): 0.05%
Unknown (RRT 0.98) ([3]; t = 0): 0.01%
Unknown (RRT 1.12) ([3]; t = 0): 0.01%
Unknown (RRT 1.22) ([3]; t = 0): 0.01%
Unknown (RRT 2.01) ([3]; t = 0): 0.01%
Unknown (RRT 2.16) ([3]; t = 0): 0.01%
Unknown (RRT 2.38) ([3]; t = 0): 0.01%
Water Content - KF ([3]; t = 0, potassium salt): 0.9 % w/w
Ki [4]: 79 to 100 nM
distal gastrointestinal motility [5]: without inducing significant distal gastrointestinal motility
affinity for other receptors [6]: no significant affinity
effect of acid on the compound ([7]; 1 N HCl for 24 hours): very little effect
effect of base on the compound ([7]; 1 N NaOH for 24 hours): very little effect
percent peak area, RRT 0.99 [7, 14]: 0.07%
percent peak area, RRT 1.05 (PRX-3140b) [7, 14]: <0.03%
percent peak area, RRT 1.08 [7, 14]: 0.11%
percent peak area, RRT 1.11 [7, 14]: 0.04%
percent peak area, RRT 1.27 [7, 14]: 0.04%
percent peak area, RRT 1.34 [7, 14]: 0.15%
percent peak area, RRT 1.53 [7, 14]: 0.43%
percent peak area, RRT 1.79 [7, 14]: 0.04%
percent peak area, RRT 2.51 [7, 14]: 0.06%
percent peak area, RRT 2.70 [7, 14]: 0.13%
percent peak area, RRT 1.00 (parent molecule, purity) ([7]; Acid (1N HCl, 24 hours), 250 nm, listed as PRX-3140 Potassium Salt, potassium salt): 98.94%
percent peak area, RRT 1.00 (parent molecule, purity) ([7]; Acid (1N HCl, 24 hours), 250 nm, potassium salt): 98.9%
percent peak area, RRT 0.94 [7, 15]: 0.28%
percent peak area, RRT 1.05 (PRX-3140b) [7, 15]: <0.03%
percent peak area, RRT 1.08 [7, 15]: 0.12%
percent peak area, RRT 1.34 [7, 15]: 0.16%
percent peak area, RRT 1.53 [7, 15]: 0.42%
percent peak area, RRT 1.79 [7, 15]: 0.05%
percent peak area, RRT 2.51 [7, 15]: 0.05%
percent peak area, RRT 2.70 [7, 15]: 0.12%
percent peak area, RRT 1.00 (parent molecule, purity) ([7]; Base (1N NaOH, 24 hours), 250 nm, listed as PRX-3140 Potassium Salt, potassium salt): 98.71%
percent peak area, RRT 1.00 (parent molecule, purity) ([7]; Base (1N NaOH, 24 hours), 250 nm, potassium salt): 98.7%
percent peak area, RRT 1.05 (PRX-3140b) [7, 16]: <0.03%
percent peak area, RRT 1.08 [7, 16]: 0.12%
percent peak area, RRT 1.11 [7, 16]: 0.04%
percent peak area, RRT 1.34 [7, 16]: 0.17%
percent peak area, RRT 1.53 [7, 16]: 0.42%
percent peak area, RRT 1.71 [7, 16]: 0.23%
percent peak area, RRT 1.79 [7, 16]: 0.11%
percent peak area, RRT 1.93 [7, 16]: 0.06%
percent peak area, RRT 2.51 [7, 16]: 0.06%
percent peak area, RRT 2.70 [7, 16]: 0.18%
percent peak area, RRT 1.00 (parent molecule, purity) ([7]; Control (DI water, 24 hours), 250 nm, listed as PRX-3140, potassium salt): 98.6%
percent peak area, RRT 1.00 (parent molecule, purity) ([7]; Control (DI water, 24 hours), 250 nm, listed as PRX-3140 Potassium Salt, potassium salt): 98.60%
percent peak area, RRT 1.00 (parent molecule, purity) ([7]; Control (DI water, 24 hours), 250 nm, potassium salt): 98.6%
percent peak area, RRT 0.78 (PRX-3140a) ([7]; H2O2 (3%, 24 hours), 250 nm): 8.49%
percent peak area, RRT 0.82 ([7]; H2O2 (3%, 24 hours), 250 nm): 0.10%
percent peak area, RRT 1.05 (PRX-3140b) ([7]; H2O2 (3%, 24 hours), 250 nm): 9.06%
percent peak area, RRT 1.08 ([7]; H2O2 (3%, 24 hours), 250 nm): 0.19%
percent peak area, RRT 1.27 ([7]; H2O2 (3%, 24 hours), 250 nm): 0.21%
percent peak area, RRT 1.34 ([7]; H2O2 (3%, 24 hours), 250 nm): 0.09%
percent peak area, RRT 1.42 ([7]; H2O2 (3%, 24 hours), 250 nm): 0.32%
percent peak area, RRT 1.53 ([7]; H2O2 (3%, 24 hours), 250 nm): 0.42%
percent peak area, RRT 1.79 ([7]; H2O2 (3%, 24 hours), 250 nm): 0.19%
percent peak area, RRT 2.70 ([7]; H2O2 (3%, 24 hours), 250 nm): 0.11%
percent peak area, RRT 1.00 (parent molecule, purity) ([7]; H2O2 (3%, 24 hours), 250 nm, listed as PRX-3140, potassium salt): 80.6%
percent peak area, RRT 1.00 (parent molecule, purity) ([7]; H2O2 (3%, 24 hours), 250 nm, listed as PRX-3140 Potassium Salt, potassium salt): 80.57%
percent peak area, RRT 1.00 (parent molecule, purity) ([7]; H2O2 (3%, 24 hours), 250 nm, potassium salt): 80.6%
Ki [8]: 99 to 160 nM
oral bioavailability [9]: high oral bioavailability
purity of the parent molecule [10]: 29.6%

COc1cc(N)c(Cl)cc1C(=O)NC1CCN(CCCOc2ccc(F)cc2)CC1OC (centres unmarked) [cisapride]
distal gastrointestinal motility [11]: significant distal gastrointestinal motility observed

CCCCCNC(=N)N/N=C/c1c[nH]c2ccc(OC)cc12 [tegaserod]
distal gastrointestinal motility [11]: significant distal gastrointestinal motility observed

[7-(methylethyl)1,4,6-trioxo(5,7-dihydrothiopheno[2,3-b]pyridine-5-yl)]-N-(3-piperidylpropyl)carboxamide [PRX-3140b]
percent peak area, RRT 1.05 (PRX-3140b) [7, 14]: < 0.03%
percent peak area, RRT 1.05 (PRX-3140b) [7, 15]: < 0.03%
percent peak area, RRT 1.05 (PRX-3140b) [7, 16]: < 0.03%
percent peak area, RRT 1.05 (PRX-3140b) ([7]; H2O2 (3%, 24 hours), 250 nm): 9.1%
